From patent US9040545B2, “Heterocyclyl pyrazolopyrimidine analogues as selective JAK inhibitors” (Cellzome Limited, priority 2010, dated 2015)

Target: T1, Aurora B (Homo sapiens, UniProt Q96GD4)
T1 construct: cell lysates from Jurkat cells (ATCC TIB-152) used; endogenous in cells; host or cells: Jurkat cells (ATCC TIB-152), treated with pervanadate
Test: Kinobeads assay, Aurora B
Type: binding
Details: for IC50: lysate of pervanadate-treated Jurkat cells, read-out: Inhibition values (IC50) Aur B
Description: The compounds of the present invention as described in the previous examples were tested in a Kinobeads™ assay as described for ZAP-70 (WO-A 2007/137867). Briefly, test compounds (at various concentrations) and the affinity matrix with the immobilized aminopyrido-pyrimidine ligand 24 were added to cell lysate aliquots and allowed to bind to the proteins in the lysate sample. After the incubation time the beads with captured proteins were separated from the lysate. Bound proteins were then eluted and the presence of JAK2 and JAK3 was detected and quantified using specific antibodies in a dot blot procedure and the Odyssey infrared detection system. Dose response curves for individual kinases were generated and IC50 values calculated. Kinobeads™ assays for ZAP-70 (WO-A 2007/137867) and for kinase selectivity profiling (WO-A 2006/134056) have been previously described.
The affinity matrix was washed two times with 15 mL of 1×DP buffer containing 0.2% NP40 (IGEPAL® CA-630, Sigma, #I3021) and then resuspended in 1×DP buffer containing 0.2% NP40 (3% beads slurry).
5×DP buffer 250 mM Tris-HCl pH 7.4, 25% Glycerol, 7.5 mM MgCl2, 750 mM NaCl, 5 mM Na3VO4; filter the 5×DP buffer through a 0.22 μm filter and store in aliquots at −80° C. The 5×DP buffer is diluted with H2O to 1×DP buffer containing 1 mM DTT and 25 mM NaF.
Stock solutions of test compounds were prepared in DMSO. In a 96 well plate 30 μL solution of diluted test compounds at 5 mM in DMSO were prepared. Starting with this solution a 1:3 dilution series (9 steps) was prepared. For control experiments (no test compound) a buffer containing 2% DMSO was used.
Cell lysate (approximately 50 mg protein per plate) was thawed in a water bath at room temperature and then stored on ice. To the thawed cell lysate 1×DP 0.8% NP40 buffer containing protease inhibitors (1 tablet for 25 mL buffer; EDTA-free protease inhibitor cocktail; Roche Diagnostics 1873580) was added in order to reach a final protein concentration of 10 mg/mL total protein. The diluted cell lysate was stored on ice. Mixed Molt4/Ramos lysate was prepared by combining one volume of Molt4 lysate and two volumes of Ramos lysate (ratio 1:2).
To a 96 well filter plate (Multiscreen HTS, BV Filter Plates, Millipore #MSBVN1250) were added per well: 100 μL affinity matrix (3% beads slurry), 3 μL of compound solution, and 50 μL of diluted lysate. Plates were sealed and incubated for 3 hours in a cold room on a plate shaker (Heidolph tiramax 1000) at 750 rpm. Afterwards the plate was washed 3 times with 230 μL washing buffer (1×DP 0.4% NP40). The filter plate was placed on top of a collection 1 plate (Greiner bio-one, PP-microplate 96 well V-shape, 65120) and the beads were then eluted with 20 μL of sample buffer (100 mM Tris, pH 7.4, 4% SDS, 0.00025% bromophenol blue, 20% glycerol, 50 mM DTT). The eluate was frozen quickly at −80° C. and stored at −20° C.
The kinases in the eluates were detected and quantified by spotting on nitrocellulose membranes and using a first antibody directed against the kinase of interest and a fluorescently labelled secondary antibody (anti-rabbit IRDye™ antibody 800 (Licor, #926-32211). The Odyssey Infrared Imaging system from LI-COR Biosciences (Lincoln, Nebr., USA) was operated according to instructions provided by the manufacturer (Schutz-Geschwendener et al, 2004. Quantitative, two-color Western blot detection with infrared fluorescence. Published May 2004 by LI-COR Biosciences, www.licor.com).
After spotting of the eluates the nitrocellulose membrane (BioTrace NT; PALL, #BTNT30R) was first blocked by incubation with Odyssey blocking buffer (LICOR, 927-40000) for 1 hour at room temperature. Blocked membranes were then incubated for 16 hours at the temperature shown in Table 5 with the first antibody diluted in Odyssey blocking buffer (LICOR #927-40000). Afterwards the membrane was washed twice for 10 minutes with PBS buffer containing 0.2% Tween 20 at room temperature. […]

T1 sequence (Q96GD4 whole entry): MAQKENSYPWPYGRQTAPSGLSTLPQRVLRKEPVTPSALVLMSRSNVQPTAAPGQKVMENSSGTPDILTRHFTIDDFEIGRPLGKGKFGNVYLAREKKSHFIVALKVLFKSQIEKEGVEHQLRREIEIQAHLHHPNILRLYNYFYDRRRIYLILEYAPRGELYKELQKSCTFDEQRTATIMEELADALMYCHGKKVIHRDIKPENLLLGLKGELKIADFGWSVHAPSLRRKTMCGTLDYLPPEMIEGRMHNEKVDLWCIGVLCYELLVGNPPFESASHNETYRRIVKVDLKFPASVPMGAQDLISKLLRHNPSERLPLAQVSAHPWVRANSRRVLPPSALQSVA

SMILES | JAK3/AurB Fold Selectivity | IC50 [nM]
OCCn1cc(Nc2ncc3cnn(Cc4cc(F)cc(N5CCNCC5)c4)c3n2)cn1 [Example 93, 2-(4-((1-(3-fluoro-5-(piperazin-1-yl)benzyl)-1H-pyrazolo[3,4-d]pyrimidin-6-yl)amino)-1H-pyrazol-1-yl)ethanol] | 10-50 Fold | 100 to 1000
Fc1cc(N2CCOCC2)c(F)c(Cn2ncc3cnc(Nc4cnn(CC5CCNC5)c4)nc32)c1F (stereo not shown) [Example 94, N-(1-(pyrrolidin-3-ylmethyl)-1H-pyrazol-4-yl)-1-(2,3,6-trifluoro-5-morpholinobenzyl)-1H-pyrazolo[3,4-d]pyrimidin-6-amine] | >50 Fold | 1000 to 10000
Cn1cc(Nc2ncc3cnn(Cc4cc(F)cc(N5CCNCC5)c4F)c3n2)cn1 [Example 95, 1-(2,5-difluoro-3-(piperazin-1-yl)benzyl)-N-(1-methyl-1H-pyrazol-4-yl)-1H-pyrazolo[3,4-d]pyrimidin-6-amine] | 10-50 Fold | 100 to 1000
OCCn1cc(Nc2ncc3cnn(Cc4cc(F)cc(N5CCNCC5)c4F)c3n2)cn1 [Example 96, 2-(4-((1-(2,5-difluoro-3-(piperazin-1-yl)benzyl)-1H-pyrazolo[3,4-d]pyrimidin-6-yl)amino)-1H-pyrazol-1-yl)ethanol] | >50 Fold | ≥ 10000
CN(C)CC(F)Cn1cc(Nc2ncc3cnn(Cc4cc(F)cc(N5CCOCC5=O)c4)c3n2)cn1 (stereo not shown) [Example 97, 4-(3-((6-((1-(3-(dimethylamino)-2-fluoropropyl)-1H-pyrazol-4-yl)amino)-1H-pyrazolo[3,4-d]pyrimidin-1-yl)methyl)-5-fluorophenyl)morpholin-3-one] | >50 Fold | 1000 to 10000
Cn1cc(Nc2ncc3cnn(Cc4cc(C(=O)N5CCOCC5)cc(F)c4F)c3n2)cn1 [Example 98, (3,4-difluoro-5-((6-((1-methyl-1H-pyrazol-4-yl)amino)-1H-pyrazolo[3,4-d]pyrimidin-1-yl)methyl)phenyl)(morpholino)methanone] | 3-10 Fold | < 100
CNCCCn1cc(Nc2ncc3cnn(Cc4cc(F)cc(N5CCOCC5=O)c4)c3n2)cn1 [Example 99, 4-(3-fluoro-5-((6-((1-(3-(methylamino)propyl)-1H-pyrazol-4-yl)amino)-1H-pyrazolo[3,4-d]pyrimidin-1-yl)methyl)phenyl)morpholin-3-one] | 3-10 Fold | < 100
Cn1cc(Nc2ncc3cnn(Cc4cccc(N5CCN(S(C)(=O)=O)CC5)c4)c3n2)cn1 [Example 100, N-(1-methyl-1H-pyrazol-4-yl)-1-(3-(4-(methylsulfonyl)piperazin-1-yl)benzyl)-1H-pyrazolo[3,4-d]pyrimidin-6-amine] | 10-50 Fold | 1000 to 10000
O=C1COCCN1c1cc(F)cc(Cn2ncc3cnc(Nc4cnn(CC5CCNC5)c4)nc32)c1 (stereo not shown) [Example 101, 4-(3-fluoro-5-((6-((1-(pyrrolidin-3-ylmethyl)-1H-pyrazol-4-yl)amino)-1H-pyrazolo[3,4-d]pyrimidin-1-yl)methyl)phenyl)morpholin-3-one] | 10-50 Fold | 100 to 1000
O=C1COCCN1c1cc(F)cc(Cn2ncc3cnc(Nc4cnn(C5CCNCC5)c4)nc32)c1 [Example 102, 4-(3-fluoro-5-((6-((1-(piperidin-4-yl)-1H-pyrazol-4-yl)amino)-1H-pyrazolo[3,4-d]pyrimidin-1-yl)methyl)phenyl)morpholin-3-one] | 10-50 Fold | 100 to 1000
Cn1cc(Nc2ncc3cnn(Cc4cccc(N5CCOCC5)c4Cl)c3n2)cn1 [Example 103, 1-(2-chloro-3-morpholinobenzyl)-N-(1-methyl-1H-pyrazol-4-yl)-1H-pyrazolo[3,4-d]pyrimidin-6-amine] | 3-10 Fold | 100 to 1000
